Experimental data: patent US20240416143A1, “PHOTONIC ANTIMICROBIAL WOUND SURFACE DRESSING” (The General Hospital Corporation, priority 2021, published 2024)

What was measured:
NorA efflux pump = NorA efflux pump (Staphylococcus aureus, UniProt P0A0J7); conditions: cited from earlier work
[1] = UV-Vis absorption spectroscopy of menadione; assay type: physicochemical
Experimental: Stock solutions of menadione (10 mg/mL) were prepared in DMSO only and in DMSO/Tween (1:1) to improve the solubility. Different concentrations of menadione were prepared to make a calibration curve by diluting the stock solution in PBS so that the final solution was either 1% DMSO or 1% DMSO/Tween. The absorbance spectra were measured using an Evolution™ 300 UV-Vis Spectrophotometer (Thermo Scientific, Waltham, Massachusetts, USA). The calibration curve was measured, and molar absorption coefficient calculated.
Thus, we dissolved the menadione in two conditions: in PBS containing either 1% DMSO or 1% DMSO/Tween80 at 400 μM. Tween 80 is a surfactant and the idea is to mix with the DMSO before to add to PBS is due to necessity to improve the solubility of menadione in aqueous solution. We measured the absorption spectrum in both conditions to analyze if there is any change in optical properties. The range of wavelength absorption of menadione was measured between 200-800 nm (see FIG. 12B) to choose the optimum wavelength of the light absorption spectra. […] The maximum wavelength of absorption found was 340 nm for both conditions. […] The molar absorptivity coefficient was compared in different wavelength according with the Table 1.

P. aeruginosa biofilm = assay: Photoinactivation of 48-hour in vitro biofilms by adjuvant/antibiotic + antimicrobial blue light; assay type: cell-based, Pseudomonas aeruginosa
Experimental: The bacterial suspension was grown in a shaking incubator overnight in BHI broth. Cells were collected by centrifugation at 4,000 rpm for 5 minutes and suspended in PBS at a density of 10^6 CFU/mL. Then, the biofilms were grown for 48 hours (unless otherwise specified) in 96-well microtiter plates as described previously [Ref. 27], with a renewal of the media every 24 hours. Following the 48-hour biofilm growth, fresh 200 μL of PBS with or without menadione in different concentrations were added to the wells and the biofilms were incubated in the dark at 25° C. for 1 hour: 0, 0.5, 1, and 2 μg/mL for MRSA USA300, AF0001, IQ0064; […]; and 0, 100, and 150 μg/mL for E. coli ATCC 25922. After that, the control and the menadione-treated biofilms were maintained without irradiation (“menadione/dark”). Simultaneously, the aBL was delivered to the other biofilm groups testing different power densities (50, 30, 15, and 10 mW/cm^2) while keeping the same radiant exposure of 250 J/cm^2. After the light exposure, the biofilms were carefully washed two times with PBS and 200 μL of PBS was added to each well. Then, the bacterial biofilms in each well were harvested by scratching with a sterile pipette tip and three wells of each group were pooled together in a 1.5 mL microcentrifuge tube. The total volume obtained, 600 μL (3 wells), was sonicated using a Branson 2510 Water Bath Sonicator (Marshall Scientific, LLC) for 5 minutes and the CFU was determined by 10-fold serial dilutions in PBS on BHI agar plates. CFU was counted after overnight incubation at 37° C. Experiments were performed in triplicate.
A bacterial suspension was grown in a shaking incubator overnight in BHI broth. Cells were collected by centrifugation at 4,000 rpm for 5 minutes and suspended in PBS at a density of 10^6 CFU/mL. Then, the biofilms were grown for 48 hours in 96-well microtiter plates with a renewal of the media every 24 hours. Following the 48-hour biofilm growth, fresh 200 μL of PBS with the tetracyclines minocycline, doxycycline, and demeclocycline in different concentrations were added to the wells and the biofilms were incubated in the dark at 25° C. for 1 hour: 0, 0.25, 0.5, and 1 μg/mL for minocycline; 0, 0.5, 1, and 2 μg/mL for doxycycline; and 0, 0.5, 1, and 2 for demeclocycline. After that, the control and the tetracycline-treated biofilms were maintained without irradiation (“menadione/dark”). […] The total volume obtained, 600 μL (3 wells), was sonicated using a Branson 2510 Water Bath Sonicator (Marshall Scientific, LLC) for 5 minutes and the CFU/mL was determined by 10-fold serial dilutions in PBS on BHI agar plates. CFU was counted after overnight incubation at 37° C.

MRSA = assay: Hydroxyl radical assay (HPF) in bacteria; assay type: cell-based, methicillin-resistant Staphylococcus aureus; conditions: 10 μg/mL menadione, 135 J/cm^2
Experimental: 1.2.9.3 Hydroxyl radical HO′ assay: The hydroxyl radical was measured by 3′-(p-hydroxyphenyl) fluorescein (HPF) (Thermofisher). HPF is a new fluorescein derivative, and it is nonfluorescent until reacted with the hydroxyl radical or peroxynitrite anion. The MRSA were grown in BHI broth medium with shaking overnight. Cells were collected by centrifugation at 4,000 rpm for 5 minutes and resuspended in PBS in the stationary growth phase culture of 1×10^8 CFU/mL. The microbial suspension was transferred to a 35×12-mm dish, mixed with 10 μg/mL of menadione, and stained with 10 μM HPF solution per the manufacturer's instruction. The bacteria were irradiated with the blue light at 50 mW/cm^2 and the samples were collected each 15 minutes to be analyzed by Microplate Spectrofluorometer (SPECTRAmax®, Molecular Devices, USA) at λex=490 nm and λem=515 nm. The control and the menadione/dark groups were generated under the same conditions without irradiation.

Chain of NorA efflux pump (P0A0J7 whole entry): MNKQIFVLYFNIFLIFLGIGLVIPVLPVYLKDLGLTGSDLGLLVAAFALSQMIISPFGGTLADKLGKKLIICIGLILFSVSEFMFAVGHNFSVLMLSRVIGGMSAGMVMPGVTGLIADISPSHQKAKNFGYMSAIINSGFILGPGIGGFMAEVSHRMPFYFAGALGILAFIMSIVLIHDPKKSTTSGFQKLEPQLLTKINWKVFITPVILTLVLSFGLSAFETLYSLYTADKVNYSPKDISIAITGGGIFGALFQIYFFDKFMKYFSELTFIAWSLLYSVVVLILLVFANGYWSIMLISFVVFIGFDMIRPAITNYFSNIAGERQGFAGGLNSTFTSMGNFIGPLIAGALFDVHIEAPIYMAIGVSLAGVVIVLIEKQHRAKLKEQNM

SMILES: CC1=CC(=O)c2ccccc2C1=O [menadione, 2-methyl-1,4-naphthoquinone]
- inhibition of efflux pump gene expression and efflux pump function (NorA efflux pump): significant inhibition
- maximum wavelength of absorption ([1]; 400 μM in PBS with 1% DMSO or 1% DMSO/Tween80, both conditions): 340 nm
- ε, molar absorptivity coefficient, λ = 340 nm ([1]; 1% DMSO in PBS): 2458 L/mol/cm
- ε, molar absorptivity coefficient, λ = 380 nm ([1]; 1% DMSO in PBS): 572.1 L/mol/cm
- ε, molar absorptivity coefficient, λ = 405 nm ([1]; 1% DMSO in PBS): 128.82 L/mol/cm
- ε, molar absorptivity coefficient, λ = 340 nm ([1]; 1% DMSO/Tween in PBS): 2064 L/mol/cm
- ε, molar absorptivity coefficient, λ = 380 nm ([1]; 1% DMSO/Tween in PBS): 410.31 L/mol/cm
- ε, molar absorptivity coefficient, λ = 405 nm ([1]; 1% DMSO/Tween in PBS): 113.85 L/mol/cm
- biofilm reduction by menadione without irradiation (P. aeruginosa biofilm; 48 h biofilm, dark): < 1 log killing
- biofilm eradicated by menadione plus aBL (P. aeruginosa biofilm; 48 h biofilm, 100 μg/mL menadione + aBL 250 J/cm^2 (50 mW/cm^2)): 6.6 log10 CFU/mL
- potentiation of the effect of aBL by menadione (P. aeruginosa biofilm; 48 h in vitro biofilm, vs aBL alone): ~100 fold
- hydroxyl radical (HPF), menadione+aBL vs aBL alone (MRSA): 1.77 times
